Experimental data published in patent publication US20230047788A1, “COMPOSITIONS COMPRISING 5-CHOLESTEN-3, 25-DIOL, 3-SULFATE (25HC3S) OR PHARMACEUTICALLY ACCEPTABLE SALT THEREOF AND AT LEAST ONE CYCLIC OLIGOSACCHARIDE” (Virginia Commonwealth University, priority 2016, published 2023).

Test: Effect of phosphate and borate buffers on chemical stability (% remaining, impurity profile), osmolality, pH and appearance of 25HC3S 30 mg/mL in 250 mg/mL HPBCD at 80°C and 60°C
Format: physicochemical
Details: 80° C.
Experimental: A total of six 25HC3S formulations at 30 mg/mL in 250 mg/mL of 2-hydroxypropyl beta cyclodextrin (HPBCD) containing 10, 20, 50 and 100 mM phosphate buffers at pH 7.5 to 8.1 and 10 and 50 mM borate buffers at pH 9.4 were prepared for the stability study. The chemical stability (measured as % remaining of 25HC3S) and physical stability (osmolality, pH and appearance) of the formulations were monitored under accelerated conditions for up to 7 days at 80° C. and up to 29 days at 60° C.
Two stock solutions of phosphate buffer at 100 and 200 mM at pH 7.4 and 7.3, respectively and one borate buffer at 100 mM at pH 9.3 were prepared (Tables 22A and 22B) and used for 250 mg/mL HPBCD vehicles preparation (Table 23).
Approximately 1200 mg each of 25HC3S was weighed into 40 mL volumetric flasks and diluted to volume with the six HPBCD vehicles containing 10-100 mM phosphate buffers or 10 and 50 mM borate buffers, respectively (Table 24). The final concentration of 25HC3S was 30 mg/mL (wt/volume, without adjusting for API purity). Aliquots of 2 mL of each formulation were filled into 2 mL glass vials, stoppered and sealed for stability sample set-up at 60° C. and 80° C. to study the effect of phosphate buffer (pH 7.5-8.1) and borate buffer (pH 9.4) at various buffer concentrations on the stability of the HPBCD formulations (Table 26).
A 0.5 mL of sample solution was transferred to a 25 mL volumetric flask and QS'ed with methanol/water=95/5 for 25HC3S concentration determination by HPLC. The % remaining of 25HC3S was calculated as follows: […]

For `C[C@H](CCCC(C)(C)O)[C@H]1CC[C@H]2[C@@H]3CC=C4C[C@@H](OS(=O)(=O)[O-])CC[C@]4(C)[C@H]3CC[C@]12C.[Na+]` [25HC3S, 5-cholesten-3, 25-diol, 3-sulfate], which “% Peak Area Major Thermal Degradant at RRT = 2.64” value (day 0, Phosphate 10 mM) is on record?
Its value is 0.3 % Peak Area.

And the “% Peak Area 25-Hydroxy Cholesterol at RRT = 3.67” value (day 0, Phosphate 20 mM)?
The value was 0.0 % Peak Area.

And the “% Peak Area 25HC3S” value (day 0, Phosphate 20 mM)?
Its value is 99.7 % Peak Area.

And the “% Peak Area Major Thermal Degradant at RRT = 2.64” value (day 0, Phosphate 20 mM)?
Its value is 0.3 % Peak Area.

And the “% Peak Area 25-Hydroxy Cholesterol at RRT = 3.67” value (day 0, Phosphate 50 mM)?
Its value is 0.0 % Peak Area.

And the “% Peak Area 25HC3S” value (day 0, Phosphate 50 mM)?
The value was 99.7 % Peak Area.

And the “% Peak Area Major Thermal Degradant at RRT = 2.64” value (day 0, Phosphate 50 mM)?
The value was 0.3 % Peak Area.

What about the “% Peak Area 25-Hydroxy Cholesterol at RRT = 3.67” value (day 0, Phosphate 100 mM) of the same compound?
Its value is 0.0 % Peak Area.

What about the “% Peak Area 25HC3S” value (day 0, Phosphate 100 mM) of the same compound?
The value was 99.8 % Peak Area.

And the “% Peak Area Major Thermal Degradant at RRT = 2.64” value (day 0, Phosphate 100 mM)?
Its value is 0.3 % Peak Area.

What about the “% Peak Area 25-Hydroxy Cholesterol at RRT = 3.67” value (day 1, Borate 10 mM) of the same compound?
Its value is 1.0 % Peak Area.

What about the “% Peak Area 25HC3S” value (day 1, Borate 10 mM) of the same compound?
Its value is 98.8 % Peak Area.

And the “% Peak Area Major Thermal Degradant at RRT = 2.64” value (day 1, Borate 10 mM)?
Its value is 0.3 % Peak Area.

What about the “% Peak Area 25-Hydroxy Cholesterol at RRT = 3.67” value (day 1, Borate 50 mM) of the same compound?
The value was 1.0 % Peak Area.

What about the “% Peak Area 25HC3S” value (day 1, Borate 50 mM) of the same compound?
Its value is 98.7 % Peak Area.

And the “% Peak Area Major Thermal Degradant at RRT = 2.64” value (day 1, Borate 50 mM)?
Its value is 0.3 % Peak Area.

What about the “% Peak Area 25-Hydroxy Cholesterol at RRT = 3.67” value (day 1, Phosphate 10 mM) of the same compound?
Its value is 0.9 % Peak Area.

What about the “% Peak Area 25HC3S” value (day 1, Phosphate 10 mM) of the same compound?
Its value is 98.9 % Peak Area.

And the “% Peak Area Major Thermal Degradant at RRT = 2.64” value (day 1, Phosphate 10 mM)?
Its value is 0.3 % Peak Area.

And the “% Peak Area 25-Hydroxy Cholesterol at RRT = 3.67” value (day 1, Phosphate 20 mM)?
The value was 1.0 % Peak Area.

And the “% Peak Area 25HC3S” value (day 1, Phosphate 20 mM)?
Its value is 98.8 % Peak Area.

What about the “% Peak Area Major Thermal Degradant at RRT = 2.64” value (day 1, Phosphate 20 mM) of the same compound?
Its value is 0.3 % Peak Area.

What about the “% Peak Area 25-Hydroxy Cholesterol at RRT = 3.67” value (day 1, Phosphate 50 mM) of the same compound?
The value was 1.0 % Peak Area.

What about the “% Peak Area 25HC3S” value (day 1, Phosphate 50 mM) of the same compound?
Its value is 98.9 % Peak Area.

What about the “% Peak Area Major Thermal Degradant at RRT = 2.64” value (day 1, Phosphate 50 mM) of the same compound?
Its value is 0.2 % Peak Area.

And the “% Peak Area 25-Hydroxy Cholesterol at RRT = 3.67” value (day 1, Phosphate 100 mM)?
Its value is 0.9 % Peak Area.

And the “% Peak Area 25HC3S” value (day 1, Phosphate 100 mM)?
The value was 98.8 % Peak Area.

And the “% Peak Area Major Thermal Degradant at RRT = 2.64” value (day 1, Phosphate 100 mM)?
Its value is 0.3 % Peak Area.

And the “% Peak Area 25-Hydroxy Cholesterol at RRT = 3.67” value (day 2, Borate 10 mM)?
The value was 1.9 % Peak Area.

What about the “% Peak Area 25HC3S” value (day 2, Borate 10 mM) of the same compound?
The value was 97.9 % Peak Area.

What about the “% Peak Area Major Thermal Degradant at RRT = 2.64” value (day 2, Borate 10 mM) of the same compound?
The value was 0.3 % Peak Area.

What about the “% Peak Area 25-Hydroxy Cholesterol at RRT = 3.67” value (day 2, Borate 50 mM) of the same compound?
The value was 2.0 % Peak Area.

And the “% Peak Area 25HC3S” value (day 2, Borate 50 mM)?
The value was 97.8 % Peak Area.

What about the “% Peak Area Major Thermal Degradant at RRT = 2.64” value (day 2, Borate 50 mM) of the same compound?
The value was 0.3 % Peak Area.

What about the “% Peak Area 25-Hydroxy Cholesterol at RRT = 3.67” value (day 2, Phosphate 10 mM) of the same compound?
The value was 1.9 % Peak Area.

And the “% Peak Area 25HC3S” value (day 2, Phosphate 10 mM)?
The value was 97.9 % Peak Area.

And the “% Peak Area Major Thermal Degradant at RRT = 2.64” value (day 2, Phosphate 10 mM)?
The value was 0.3 % Peak Area.

What about the “% Peak Area 25-Hydroxy Cholesterol at RRT = 3.67” value (day 2, Phosphate 20 mM) of the same compound?
Its value is 1.9 % Peak Area.

And the “% Peak Area 25HC3S” value (day 2, Phosphate 20 mM)?
Its value is 98.0 % Peak Area.

What about the “% Peak Area Major Thermal Degradant at RRT = 2.64” value (day 2, Phosphate 20 mM) of the same compound?
Its value is 0.2 % Peak Area.

What about the “% Peak Area 25-Hydroxy Cholesterol at RRT = 3.67” value (day 2, Phosphate 50 mM) of the same compound?
The value was 2.0 % Peak Area.

And the “% Peak Area 25HC3S” value (day 2, Phosphate 50 mM)?
The value was 97.8 % Peak Area.

And the “% Peak Area Major Thermal Degradant at RRT = 2.64” value (day 2, Phosphate 50 mM)?
The value was 0.3 % Peak Area.

What about the “% Peak Area 25-Hydroxy Cholesterol at RRT = 3.67” value (day 2, Phosphate 100 mM) of the same compound?
Its value is 2.0 % Peak Area.

What about the “% Peak Area 25HC3S” value (day 2, Phosphate 100 mM) of the same compound?
The value was 97.8 % Peak Area.

And the “% Peak Area Major Thermal Degradant at RRT = 2.64” value (day 2, Phosphate 100 mM)?
Its value is 0.3 % Peak Area.

And the “% Peak Area 25-Hydroxy Cholesterol at RRT = 3.67” value (day 3, Borate 10 mM)?
The value was 2.8 % Peak Area.

And the “% Peak Area 25HC3S” value (day 3, Borate 10 mM)?
The value was 97.0 % Peak Area.

What about the “% Peak Area Major Thermal Degradant at RRT = 2.64” value (day 3, Borate 10 mM) of the same compound?
The value was 0.3 % Peak Area.

And the “% Peak Area 25-Hydroxy Cholesterol at RRT = 3.67” value (day 3, Borate 50 mM)?
Its value is 3.0 % Peak Area.

What about the “% Peak Area 25HC3S” value (day 3, Borate 50 mM) of the same compound?
Its value is 96.9 % Peak Area.

What about the “% Peak Area Major Thermal Degradant at RRT = 2.64” value (day 3, Borate 50 mM) of the same compound?
Its value is 0.2 % Peak Area.

And the “% Peak Area 25-Hydroxy Cholesterol at RRT = 3.67” value (day 3, Phosphate 10 mM)?
Its value is 4.3 % Peak Area.

What about the “% Peak Area 25HC3S” value (day 3, Phosphate 10 mM) of the same compound?
The value was 95.6 % Peak Area.

What about the “% Peak Area Major Thermal Degradant at RRT = 2.64” value (day 3, Phosphate 10 mM) of the same compound?
The value was 0.2 % Peak Area.

And the “% Peak Area 25-Hydroxy Cholesterol at RRT = 3.67” value (day 3, Phosphate 20 mM)?
Its value is 3.5 % Peak Area.

What about the “% Peak Area 25HC3S” value (day 3, Phosphate 20 mM) of the same compound?
The value was 96.4 % Peak Area.

What about the “% Peak Area Major Thermal Degradant at RRT = 2.64” value (day 3, Phosphate 20 mM) of the same compound?
The value was 0.2 % Peak Area.

What about the “% Peak Area 25-Hydroxy Cholesterol at RRT = 3.67” value (day 3, Phosphate 50 mM) of the same compound?
The value was 3.3 % Peak Area.

What about the “% Peak Area 25HC3S” value (day 3, Phosphate 50 mM) of the same compound?
The value was 96.5 % Peak Area.

And the “% Peak Area Major Thermal Degradant at RRT = 2.64” value (day 3, Phosphate 50 mM)?
The value was 0.3 % Peak Area.

What about the “% Peak Area 25-Hydroxy Cholesterol at RRT = 3.67” value (day 3, Phosphate 100 mM) of the same compound?
Its value is 3.2 % Peak Area.

And the “% Peak Area 25HC3S” value (day 3, Phosphate 100 mM)?
Its value is 96.6 % Peak Area.

And the “% Peak Area Major Thermal Degradant at RRT = 2.64” value (day 3, Phosphate 100 mM)?
The value was 0.3 % Peak Area.

What about the “% Peak Area 25-Hydroxy Cholesterol at RRT = 3.67” value (day 7, Borate 10 mM) of the same compound?
Its value is 7.3 % Peak Area.

What about the “% Peak Area 25HC3S” value (day 7, Borate 10 mM) of the same compound?
Its value is 92.5 % Peak Area.

What about the “% Peak Area Major Thermal Degradant at RRT = 2.64” value (day 7, Borate 10 mM) of the same compound?
Its value is 0.2 % Peak Area.

What about the “% Peak Area 25-Hydroxy Cholesterol at RRT = 3.67” value (day 7, Borate 50 mM) of the same compound?
Its value is 6.2 % Peak Area.

What about the “% Peak Area 25HC3S” value (day 7, Borate 50 mM) of the same compound?
The value was 93.6 % Peak Area.

And the “% Peak Area Major Thermal Degradant at RRT = 2.64” value (day 7, Borate 50 mM)?
The value was 0.3 % Peak Area.

And the “% Peak Area 25-Hydroxy Cholesterol at RRT = 3.67” value (day 7, Phosphate 10 mM)?
Its value is 27.1 % Peak Area.

And the “% Peak Area 25HC3S” value (day 7, Phosphate 10 mM)?
The value was 72.3 % Peak Area.

And the “% Peak Area Major Thermal Degradant at RRT = 2.64” value (day 7, Phosphate 10 mM)?
The value was 0.7 % Peak Area.

And the “% Peak Area 25-Hydroxy Cholesterol at RRT = 3.67” value (day 7, Phosphate 20 mM)?
The value was 19.8 % Peak Area.

What about the “% Peak Area 25HC3S” value (day 7, Phosphate 20 mM) of the same compound?
The value was 79.9 % Peak Area.

And the “% Peak Area Major Thermal Degradant at RRT = 2.64” value (day 7, Phosphate 20 mM)?
Its value is 0.2 % Peak Area.

What about the “% Peak Area 25-Hydroxy Cholesterol at RRT = 3.67” value (day 7, Phosphate 50 mM) of the same compound?
The value was 11.6 % Peak Area.

And the “% Peak Area 25HC3S” value (day 7, Phosphate 50 mM)?
Its value is 88.2 % Peak Area.

What about the “% Peak Area Major Thermal Degradant at RRT = 2.64” value (day 7, Phosphate 50 mM) of the same compound?
Its value is 0.2 % Peak Area.

What about the “% Peak Area 25-Hydroxy Cholesterol at RRT = 3.67” value (day 7, Phosphate 100 mM) of the same compound?
The value was 9.8 % Peak Area.

What about the “% Peak Area 25HC3S” value (day 7, Phosphate 100 mM) of the same compound?
The value was 90.0 % Peak Area.

And the “% Peak Area Major Thermal Degradant at RRT = 2.64” value (day 7, Phosphate 100 mM)?
The value was 0.2 % Peak Area.
